From ChEMBL document CHEMBL3885861, “Open TG-GATES”

Organism: Rattus norvegicus
Assay: Open TG-GATES - Regimen: Daily Repeat
Assay type: toxicity, organism-based, Sprague-Dawley
Design: regimen Daily Repeat, gender Male, age 6 weeks
Settings: in vivo, po, 1000 mg/kg, route gavage, dose level High; for APTT / Bas / Eos / Fbg / Hb / Ht / Lym / MCHC / MCV / Mono / Neu / PT / Plat / RBC / Ret / WBC: tissue Blood; for KIDNEY_L / KIDNEY_R / KIDNEY_TOTAL: tissue Kidney; for LIVER: tissue Liver; for ALP / ALT / AST / BUN / CRE / Ca / Cl / DBIL / GLC / IP / K / LDH / Na / PL / RALB / TBIL / TG / TP / gamma-GTP: tissue Plasma

CN(C)C(=N)N=C(N)N [METFORMIN]
TERMINAL_BW (72 h, time 3 day): 213.8 g | APTT (72 h, time 3 day): 17.6 s | Bas (72 h, time 3 day): 0% | Eos (72 h, time 3 day): 1% | Fbg (72 h, time 3 day): 223.8 mg/dL | Hb (72 h, time 3 day): 13.4 g/dL | Ht (72 h, time 3 day): 39.4% | Lym (72 h, time 3 day): 72.8% | MCHC (72 h, time 3 day): 34.1% | MCV (72 h, time 3 day): 63.1 fL | Mono (72 h, time 3 day): 4% | Neu (72 h, time 3 day): 22% | PT (72 h, time 3 day): 12.4 s | Plat (72 h, time 3 day): 121.1 x10_4/uL | RBC (72 h, time 3 day): 624.8 x10_4/ul | Ret (72 h, time 3 day): 5.5% | WBC (72 h, time 3 day): 107 x10_2/uL | KIDNEY_L (72 h, time 3 day): 0.9 g | KIDNEY_R (72 h, time 3 day): 0.9 g | KIDNEY_TOTAL (72 h, time 3 day): 1.8 g | LIVER (72 h, time 3 day): 11.6 g | ALP (72 h, time 3 day): 1276.4 IU/L | ALT (72 h, time 3 day): 37.4 IU/L | AST (72 h, time 3 day): 74 IU/L | BUN (72 h, time 3 day): 16.6 mg/dL | CRE (72 h, time 3 day): 0.2 mg/dL | Ca (72 h, time 3 day): 11.1 mg/dL | Cl (72 h, time 3 day): 104 meq/L | DBIL (72 h, time 3 day): 0.012 mg/dL | GLC (72 h, time 3 day): 180.2 mg/dL | IP (72 h, time 3 day): 8.7 mg/dL | K (72 h, time 3 day): 4.1 meq/L | LDH (72 h, time 3 day): 63.4 IU/L | Na (72 h, time 3 day): 140.2 meq/L | PL (72 h, time 3 day): 137.8 mg/dL | RALB (72 h, time 3 day): 2.5 g/dL | TBIL (72 h, time 3 day): 0.032 mg/dL | TG (72 h, time 3 day): 95.8 mg/dL | TP (72 h, time 3 day): 5.4 g/dL | gamma-GTP (72 h, time 3 day): 1.2 IU/L | TERMINAL_BW ([…], time 7 day): 243 g | TERMINAL_BW ([…], time 14 day): 288.9 g | TERMINAL_BW ([…], time 28 day): 357 g | APTT ([…], time 7 day): 15.3 s | Bas ([…], time 7 day): 0.2% | Eos ([…], time 7 day): 0.6% | Fbg ([…], time 7 day): 254.8 mg/dL | Hb ([…], time 7 day): 13.8 g/dL | Ht ([…], time 7 day): 41% | Lym ([…], time 7 day): 80.4% | MCHC ([…], time 7 day): 33.7% | MCV ([…], time 7 day): 61.8 fL | Mono ([…], time 7 day): 3.2% | Neu ([…], time 7 day): 15.2% | PT ([…], time 7 day): 12.1 s | Plat ([…], time 7 day): 116.4 x10_4/uL | RBC ([…], time 7 day): 664 x10_4/ul | Ret ([…], time 7 day): 5.5% | WBC ([…], time 7 day): 101.5 x10_2/uL | APTT ([…], time 14 day): 17 s | Bas ([…], time 14 day): 0% | Eos ([…], time 14 day): 0.8% | Fbg ([…], time 14 day): 252.2 mg/dL | Hb ([…], time 14 day): 14.4 g/dL | Ht ([…], time 14 day): 41.7% | Lym ([…], time 14 day): 75.4% | MCHC ([…], time 14 day): 34.5% | MCV ([…], time 14 day): 59.5 fL | Mono ([…], time 14 day): 3.4% | Neu ([…], time 14 day): 19.6% | PT ([…], time 14 day): 12.2 s | Plat ([…], time 14 day): 124 x10_4/uL | RBC ([…], time 14 day): 702 x10_4/ul | Ret ([…], time 14 day): 4.4% | WBC ([…], time 14 day): 121.9 x10_2/uL | APTT ([…], time 28 day): 17.8 s | Bas ([…], time 28 day): 0% | Eos ([…], time 28 day): 1.2% | Fbg ([…], time 28 day): 258.6 mg/dL | Hb ([…], time 28 day): 15 g/dL | Ht ([…], time 28 day): 43.7% | Lym ([…], time 28 day): 74.6% | MCHC ([…], time 28 day): 34.3% | MCV ([…], time 28 day): 57.7 fL | Mono ([…], time 28 day): 3.2% | Neu ([…], time 28 day): 20.6% | PT ([…], time 28 day): 12 s | Plat ([…], time 28 day): 105.5 x10_4/uL | RBC ([…], time 28 day): 757.4 x10_4/ul | Ret ([…], time 28 day): 2.6% | WBC ([…], time 28 day): 108.4 x10_2/uL | KIDNEY_L ([…], time 7 day): 1.1 g | KIDNEY_R ([…], time 7 day): 1 g | KIDNEY_TOTAL ([…], time 7 day): 2.1 g | KIDNEY_L ([…], time 14 day): 1.2 g | KIDNEY_R ([…], time 14 day): 1.1 g | KIDNEY_TOTAL ([…], time 14 day): 2.3 g | KIDNEY_L ([…], time 28 day): 1.4 g | KIDNEY_R ([…], time 28 day): 1.4 g | KIDNEY_TOTAL ([…], time 28 day): 2.8 g | LIVER ([…], time 7 day): 12.1 g | LIVER ([…], time 14 day): 14.4 g | LIVER ([…], time 28 day): 16.5 g | ALP ([…], time 7 day): 1316.4 IU/L | ALT ([…], time 7 day): 44.4 IU/L | AST ([…], time 7 day): 82.2 IU/L | BUN ([…], time 7 day): 15 mg/dL | CRE ([…], time 7 day): 0.2 mg/dL | Ca ([…], time 7 day): 10.9 mg/dL | Cl ([…], time 7 day): 104.2 meq/L | DBIL ([…], time 7 day): 0.012 mg/dL | GLC ([…], time 7 day): 193.2 mg/dL | IP ([…], time 7 day): 8.4 mg/dL | K ([…], time 7 day): 4.4 meq/L | LDH ([…], time 7 day): 57.4 IU/L | Na ([…], time 7 day): 140.8 meq/L | PL ([…], time 7 day): 141.6 mg/dL | RALB ([…], time 7 day): 2.6 g/dL | TBIL ([…], time 7 day): 0.024 mg/dL | TG ([…], time 7 day): 92.2 mg/dL | TP ([…], time 7 day): 5.5 g/dL | gamma-GTP ([…], time 7 day): 1 IU/L | ALP ([…], time 14 day): 1249.8 IU/L | ALT ([…], time 14 day): 39 IU/L | AST ([…], time 14 day): 75 IU/L | BUN ([…], time 14 day): 17.6 mg/dL | CRE ([…], time 14 day): 0.2 mg/dL | Ca ([…], time 14 day): 11 mg/dL | Cl ([…], time 14 day): 103.6 meq/L | DBIL ([…], time 14 day): 0.008 mg/dL | GLC ([…], time 14 day): 188.6 mg/dL | IP ([…], time 14 day): 6.9 mg/dL | K ([…], time 14 day): 4.1 meq/L | LDH ([…], time 14 day): 61.2 IU/L | Na ([…], time 14 day): 141.4 meq/L | PL ([…], time 14 day): 164 mg/dL | RALB ([…], time 14 day): 2.8 g/dL | TBIL ([…], time 14 day): 0.026 mg/dL | TG ([…], time 14 day): 148.6 mg/dL | TP ([…], time 14 day): 6 g/dL | gamma-GTP ([…], time 14 day): 1.2 IU/L | ALP ([…], time 28 day): 1090.4 IU/L | ALT ([…], time 28 day): 41.6 IU/L | AST ([…], time 28 day): 71.4 IU/L | BUN ([…], time 28 day): 17.4 mg/dL | CRE ([…], time 28 day): 0.2 mg/dL | Ca ([…], time 28 day): 11.1 mg/dL | Cl ([…], time 28 day): 104 meq/L | DBIL ([…], time 28 day): 0.014 mg/dL | GLC ([…], time 28 day): 194.2 mg/dL | IP ([…], time 28 day): 6.7 mg/dL | K ([…], time 28 day): 3.9 meq/L | LDH ([…], time 28 day): 50.2 IU/L | Na ([…], time 28 day): 145.2 meq/L | PL ([…], time 28 day): 152.6 mg/dL | RALB ([…], time 28 day): 2.7 g/dL | TBIL ([…], time 28 day): 0.034 mg/dL | TG ([…], time 28 day): 148 mg/dL | TP ([…], time 28 day): 6 g/dL | gamma-GTP ([…], time 28 day): 1 IU/L
